The source of these data is patent US9850225B2, “Compounds useful as immunomodulators” (BRISTOL-MYERS SQUIBB COMPANY, priority 2014, dated 2017).

This assay addresses PD-1/PD-L1 interaction (PD-1-Ig / PD-L1-His) (Homo sapiens (Human), UniProt Q9NZQ7). As to the kind of experiment: PD-1/PD-L1 Homogenous Time-Resolved Fluorescence (HTRF) binding assay. The conditions noted are these: read-out: Range or IC50. The text has this:
The ability of the compounds of formula (I) to bind to PD-L1 was investigated using a PD-1/PD-L1 Homogenous Time-Resolved Fluorescence (HTRF) binding assay.
Homogenous Time-Resolved Fluorescence (HTRF) Binding Assay.
The interaction of PD-1 and PD-L1 can be assessed using soluble, purified preparations of the extracellular domains of the two proteins. The PD-1 and PD-L1 protein extracellular domains were expressed as fusion proteins with detection tags, for PD-1, the tag was the Fc portion of Immunoglobulin (PD-1-Ig) and for PD-L1 it was the 6 histidine motif (PD-L1-His). All binding studies were performed in an HTRF assay buffer consisting of dPBS supplemented with 0.1% […] bovine serum albumin and 0.05% (v/v) Tween-20. For the h/PD-L1-His binding assay, inhibitors were pre-incubated with PD-L1-His (10 nM final) for 15 m in 4 μl of assay buffer, followed by addition of PD-1-Ig (20 nM final) in 1 μl of assay buffer and further incubation for 15 m. HTRF detection was achieved using europium crypate-labeled anti-Ig (1 nM final) and allophycocyanin (APC) labeled anti-His (20 nM final). Antibodies were diluted in HTRF detection buffer and 5 μl was dispensed on top of the binding reaction. […] Additional binding assays were established between the human proteins PD-1-Ig/PD-L2-His (20 & 5 nM, respectively) and CD80-His/PD-L1-Ig (100 & 10 nM, respectively). […]
Background: Time-resolved FRET reads energy transfer from a long-lived donor to a nearby acceptor.

Setting [1] is: PD-1/PD-L1 HTRF binding assay, value given as range class.

Structures can show the parent of a compound that is named as a salt. Where two headings read alike, the source gives them in different places.

Sequence of PD-1/PD-L1 interaction (PD-1-Ig / PD-L1-His) (Q9NZQ7 other isoform, or with tags, fused parts or gaps): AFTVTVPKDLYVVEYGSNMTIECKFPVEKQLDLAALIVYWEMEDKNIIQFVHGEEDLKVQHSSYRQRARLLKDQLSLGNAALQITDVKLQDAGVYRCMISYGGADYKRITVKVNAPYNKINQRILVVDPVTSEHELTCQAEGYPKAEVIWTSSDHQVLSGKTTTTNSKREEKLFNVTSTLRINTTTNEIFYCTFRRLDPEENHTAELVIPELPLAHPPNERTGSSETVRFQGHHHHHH

On to `C=Cc1cc(CNCCNC(C)=O)c(OCc2cccc(C#N)c2)cc1OCc1cccc(-c2ccc3c(c2)OCCO3)c1C` [Example 1292, N-(2-(2-(3-cyanobenzyloxy)-4-(3-(2,3-dihydrobenzo[b][1,4]dioxin-6-yl)-2-methylbenzyloxy)-5-vinylbenzylamino)ethyl)acetamide], for which the IC50 (as a rule, the concentration that gives 50% inhibition) under setting [1] is 0.0006 to 0.01 µM. Still for that read-out and setting: the same measure for `Cc1cc(CN2CCCC[C@@H]2C(=O)O)c(OCc2cncc(C#N)c2)cc1OCc1cccc(-c2ccc3c(c2)OCCO3)c1Cl` [Example 1155, (R)-1-(4-(2-chloro-3-(2,3-dihydrobenzo[b][1,4]dioxin-6-yl)benzyloxy)-2-((5-cyanopyridin-3-yl)methoxy)-5-methylbenzyl)piperidine-2-carboxylic acid]: 0.0006 to 0.01 µM; for `Cc1c(COc2cc(OCc3cccc(C#N)c3)c(CN[C@@H](Cc3cscn3)C(=O)O)cc2Cl)cccc1-c1ccc2c(c1)OCCO2` [Example 1208, (S)-2-((5-chloro-2-((3-cyanobenzyl)oxy)-4-((3-(2,3-dihydrobenzo[b][1,4]dioxin-6-yl)-2-methylbenzyl)oxy)benzyl)amino)-3-(thiazol-4-yl)propanoic acid]: 0.0006 to 0.01 µM; for `CC(=O)NCCNCc1ccc(OCc2cccc(-c3ccccc3)c2C)cc1OCc1c(F)cccc1F` [Example 1049, N-(2-((2-((2,6-difluorobenzyl)oxy)-4-((2-methyl-[1,1′-biphenyl]-3-yl)methoxy)benzyl)amino)ethyl)acetamide]: 0.1 to 20 µM. In the case of `CC(=O)NCCNCc1ccc(OCc2cccc(-c3ccccc3)c2C)cc1OCc1cc(F)cc(Cl)c1` [Example 1091, N-(2-((2-((3-chloro-5-fluorobenzyl)oxy)-4-((2-methyl-[1,1′-biphenyl]-3-yl)methoxy)benzyl)amino)ethyl)acetamide], the IC50 under setting [1] was in the range of 0.1 to 20 µM. Same read-out and setting: with `Cc1c(COc2cc(O)c(CN[C@](C)(CO)C(=O)O)cc2Cl)cccc1-c1ccc2c(c1)OCCO2` [Example 1263, (R)-2-((5-chloro-4-((3-(2,3-dihydrobenzo[b][1,4]dioxin-6-yl)-2-methylbenzyl)oxy)-2-hydroxybenzyl)amino)-3-hydroxy-2-methylpropanoic acid, TFA] the figure was 0.1 to 20 µM; with `Cc1c(COc2cc(OCc3cccc(C#N)c3)c(CN[C@@H](CCS(C)(=O)=O)C(=O)O)cc2Cl)cccc1-c1ccc2c(c1)OCCO2` [Example 1200, (S)-2-((5-chloro-2-((3-cyanobenzyl)oxy)-4-((3-(2,3-dihydrobenzo[b][1,4]dioxin-6-yl)-2-methylbenzyl)oxy)benzyl)amino)-4-(methylsulfonyl)butanoic acid], 0.01 to 0.1 µM. `CC(=O)NCCNCc1ccc(OCc2cccc(-c3ccccc3)c2C)cc1OCc1cccc([N+](=O)[O-])c1` [Example 1076]: the IC50 lay within 0.01 to 0.1 µM. With `CC(=O)NCCNCc1ccc(OCc2cccc(-c3ccccc3)c2C)cc1OCc1ccccc1F` [Example 1048, N-(2-((2-((2-fluorobenzyl)oxy)-4-((2-methyl-[1,1′-biphenyl]-3-yl)methoxy)benzyl)amino)ethyl)acetamide], the IC50 under setting [1] fell in the range of 0.1 to 20 µM.

Regarding `Cc1cc(CN[C@](C)(CO)C(=O)O)c(OCc2ccc(F)c(C#N)c2)cc1OCc1cccc(-c2ccc3c(c2)OCCO3)c1C` [Example 1273, (R)-2-((2-((3-cyano-4-fluorobenzyl)oxy)-4-((3-(2,3-dihydrobenzo[b][1,4]dioxin-6-yl)-2-methylbenzyl)oxy)-5-methylbenzyl)amino)-3-hydroxy-2-methylpropanoic acid], the half-maximal inhibitory concentration (IC50) under setting [1] was in the range of 0.0006 to 0.01 µM. `Cc1cc(CN2CCCC[C@H]2C(=O)O)c(OCc2cccc(C#N)c2)cc1OCc1cccc(-c2ccc3c(c2)OCCO3)c1C` [Example 1268, (S)-1-(2-((3-cyanobenzyl)oxy)-4-((3-(2,3-dihydrobenzo[b][1,4]dioxin-6-yl)-2-methylbenzyl)oxy)-5-methylbenzyl)piperidine-2-carboxylic acid]: the IC50 under setting [1] was 0.0006 to 0.01 µM. Same read-out and setting: with `C[C@](CO)(NCc1ccc(OCc2cccc(-c3ccc4c(c3)OCCO4)c2Cl)cc1OCc1cccc(C#N)c1)C(=O)O` [Example 1148, (R)-2-(4-(2-chloro-3-(2,3-dihydrobenzo[b][1,4]dioxin-6-yl)benzyloxy)-2-(3-cyanobenzyloxy)benzylamino)-3-hydroxy-2-methylpropanoic acid] the figure was 0.0006 to 0.01 µM; with `Cc1c(COc2ccc(CNC(C)(CO)C(=O)O)c(OCc3cccc(C#N)c3)c2)cccc1-c1ccccc1` (stereo not drawn) [Example 1014, 2-((2-((3-cyanobenzyl)oxy)-4-((2-methyl-[1,1′-biphenyl]-3-yl)methoxy)benzyl)amino)-3-hydroxy-2-methylpropanoic acid], 0.0006 to 0.01 µM; with `COc1cc(COc2cc(OCc3cccc(-c4ccc5c(c4)OCCO5)c3C)c(Cl)cc2CN[C@@](C)(CO)C(=O)O)cc(Cl)n1` [Example 3014, (S)-2-((5-chloro-2-((2-chloro-6-methoxypyridin-4-yl)methoxy)-4-((3-(2,3-dihydrobenzo[b][1,4]dioxin-6-yl)-2-methylbenzyl)oxy)benzyl)amino)-3-hydroxy-2-methylpropanoic acid], 0.0006 to 0.01 µM. Same read-out and setting: with `Cc1c(COc2ccc(CN[C@@H](CO)CC(=O)O)c(OCc3cccc(C#N)c3)c2)cccc1-c1ccc2c(c1)OCCO2` [Example 1129, (R)-3-((2-((3-cyanobenzyl)oxy)-4-((3-(2,3-dihydrobenzo[b][1,4]dioxin-6-yl)-2-methylbenzyl)oxy)benzyl)amino)-4-hydroxybutanoic acid] the figure was 0.0006 to 0.01 µM; with `Cc1c(COc2cc(OCc3cncc(C#N)c3)c(CN[C@@](C)(CO)C(=O)O)cc2Br)cccc1-c1ccc2c(c1)OCCO2` [Example 1321, (S)-2-(5-bromo-2-((5-cyanopyridin-3-yl)methoxy)-4-(3-(2,3-dihydrobenzo[b][1,4]dioxin-6-yl)-2-methylbenzyloxy)benzylamino)-3-hydroxy-2-methylpropanoic acid], 0.0006 to 0.01 µM.

In the case of `N#Cc1cccc(COc2cc(OCc3cccc(-c4ccc5c(c4)OCCO5)c3C#N)c(Br)cc2CNC[C@@H](O)CC(=O)O)c1` [Example 1314, (S)-4-((5-bromo-4-((2-cyano-3-(2,3-dihydrobenzo[b][1,4]dioxin-6-yl)benzyl)oxy)-2-((3-cyanobenzyl)oxy)benzyl)amino)-3-hydroxybutanoic acid], under setting [1], the half-inhibitory concentration (IC50) is 0.0006 to 0.01 µM. On the same count and under the same terms, the same measure for `Cc1c(COc2ccc(CN3CCCC[C@H]3C(=O)O)c(OCc3ccc(F)c(C#N)c3)c2)cccc1-c1ccccc1` [Example 1334, (S)-1-(2-((3-cyano-4-fluorobenzyl)oxy)-4-((2-methyl-[1,1′-biphenyl]-3-yl)methoxy)benzyl)piperidine-2-carboxylic acid]: 0.0006 to 0.01 µM; for `Cc1c(COc2cc(OCc3cccc(C#N)c3)c(CN[C@@H](CCCCN(C)C)C(=O)O)cc2Cl)cccc1-c1ccc2c(c1)OCCO2` [Example 1173, (S)-2-((5-chloro-2-((3-cyanobenzyl)oxy)-4-((3-(2,3-dihydrobenzo[b][1,4]dioxin-6-yl)-2-methylbenzyl)oxy)benzyl)amino)-6-(dimethylamino)hexanoic acid]: 0.0006 to 0.01 µM; for `Cc1c(COc2cc(OCc3cncc(C#N)c3)c(CN[C@@](C)(CO)C(=O)O)cc2Cl)cccc1-c1ccc2c(c1)OCCO2` [Example 1252, (S)-2-(5-chloro-2-((5-cyanopyridin-3-yl)methoxy)-4-(3-(2,3-dihydrobenzo[b][1,4]dioxin-6-yl)-2-methylbenzyloxy)benzylamino)-3-hydroxy-2-methylpropanoic acid]: 0.0006 to 0.01 µM. For the molecule `Cc1cc(CN[C@@](C)(CO)C(=O)O)c(OCc2cncc(C#N)c2)cc1OCc1cccc(-c2ccc3c(c2)OCCO3)c1Cl` [Example 1154, (S)-2-(4-(2-chloro-3-(2,3-dihydrobenzo[b][1,4]dioxin-6-yl)benzyloxy)-2-((5-cyanopyridin-3-yl)methoxy)-5-methylbenzylamino)-3-hydroxy-2-methylpropanoic acid], the concentration for half-maximal inhibition (IC50) under setting [1] fell in the range of 0.0006 to 0.01 µM. In the case of `Cc1cc(CN[C@H](CO)C(=O)O)c(OCc2cncc(C#N)c2)cc1OCc1cccc(-c2ccc3c(c2)OCCO3)c1Cl` [Example 1153, (R)-2-(4-(2-chloro-3-(2,3-dihydrobenzo[b][1,4]dioxin-6-yl)benzyloxy)-2-((5-cyanopyridin-3-yl)methoxy)-5-methylbenzylamino)-3-hydroxypropanoic acid], the half-maximal inhibitory concentration (IC50) under setting [1] was in the range of 0.0006 to 0.01 µM.

Consider `COc1cc(OCc2cccc(-c3ccc4c(c3)OCCO4)c2C)cc(OCc2cccc(C#N)c2)c1CN[C@@H](CO)C(=O)O` [Example 1141, (S)-2-((2-((3-cyanobenzyl)oxy)-4-((3-(2,3-dihydrobenzo[b][1,4]dioxin-6-yl)-2-methylbenzyl)oxy)-6-methoxybenzyl)amino)-3-hydroxypropanoic acid], for which the concentration for half-maximal inhibition (IC50) under setting [1] lay within 0.0006 to 0.01 µM. Still for that read-out and setting: the same measure for `Cc1c(COc2ccc(CN[C@@](C)(CO)C(=O)O)c(OCc3cccc(C#N)c3)c2Cl)cccc1-c1ccc2c(c1)OCCO2` [Example 1238, (S)-2-((3-chloro-2-((3-cyanobenzyl)oxy)-4-((3-(2,3-dihydrobenzo[b][1,4]dioxin-6-yl)-2-methylbenzyl)oxy)benzyl)amino)-3-hydroxy-2-methylpropanoic acid]: 0.1 to 20 µM.
